#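 Each compound was tested at five concentrations against cells in 96-well plates for 48 hours. The concentration for 50% growth inhibition is given as GI50.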 Calls of active or inactive are those of the source. Cut-off read from the data, not from the text of the source: active = GI50 up to about 1.1 µM and inactive = higher.
# Tests used:
# Test in all cases: NCI tumour cell line growth inhibition, 48 h
# [1] = test system: IGROV-1
# [2] = test system: T47D
# [3] = test system: A498
# [4] = test system: SNB-75
# [5] = test system: MDA-N
# [6] = test system: SNB-19
# [7] = test system: HOP-92
# [8] = test system: SK-MEL-5
# [9] = test system: HCC 2998
# [10] = test system: ACHN
# [11] = test system: SK-OV-3
# [12] = test system: SF-539
# [13] = test system: UO-31
# [14] = test system: U-251
# [15] = test system: CCRF-CEM
# [16] = test system: LOX IMVI
# [17] = test system: SF-268
# [18] = test system: M14
# [19] = test system: Malme-3M
# [20] = test system: 786-0
# [21] = test system: SN12C
# [22] = test system: CAKI-1
# [23] = test system: K562
# [24] = test system: NCI-H460
# [25] = test system: BT-549
# [26] = test system: MOLT-4
# [27] = test system: SK-MEL-28
# [28] = test system: RPMI-8226
# [29] = test system: UACC-62
# [30] = test system: HT-29
# [31] = test system: OVCAR-3
# [32] = test system: SR
# [33] = test system: KM12
# [34] = test system: OVCAR-4
# [35] = test system: DU-145
# [36] = test system: EKVX
# [37] = test system: MDA-MB-231
# [38] = test system: NCI-H522
# [39] = test system: OVCAR-8
# [40] = test system: NCI-H23
# [41] = test system: MDA-MB-435
# [42] = test system: SF-295
# [43] = test system: COLO 205
# [44] = test system: UACC-257
# [45] = test system: PC-3
# [46] = test system: HOP-62
# [47] = test system: HCT-15
# [48] = test system: HCT-116
# [49] = test system: TK-10
# [50] = test system: Hs-578T
# [51] = test system: A549
# [52] = test system: NCI/ADR-RES
# [53] = test system: OVCAR-5
# [54] = test system: MCF7
# [55] = test system: SW-620
# [56] = test system: NCI-H226
# [57] = test system: RXF 393
# [58] = test system: SK-MEL-2
smiles,measurement,setting,value
O=C(Cc1ccccc1)NNc1nc(NNC(=O)c2ccncc2)nc(Nc2ccc([N+](=O)[O-])cc2)n1,GI50,[1],> 10 µM (inactive)
same,GI50,[2],> 10 µM (inactive)
same,GI50,[3],> 10 µM (inactive)
same,GI50,[4],> 10 µM (inactive)
same,GI50,[5],8.59 µM (inactive)
same,GI50,[6],6.56 µM (inactive)
same,GI50,[7],> 10 µM (inactive)
same,GI50,[8],> 10 µM (inactive)
same,GI50,[9],> 10 µM (inactive)
same,GI50,[10],> 10 µM (inactive)
same,GI50,[11],> 10 µM (inactive)
same,GI50,[12],> 10 µM (inactive)
same,GI50,[13],> 10 µM (inactive)
same,GI50,[14],> 10 µM (inactive)
same,GI50,[15],7.57 µM (inactive)
same,GI50,[16],> 10 µM (inactive)
same,GI50,[17],> 10 µM (inactive)
same,GI50,[18],> 10 µM (inactive)
same,GI50,[19],> 10 µM (inactive)
same,GI50,[20],> 10 µM (inactive)
same,GI50,[21],> 10 µM (inactive)
same,GI50,[22],> 10 µM (inactive)
same,GI50,[23],6.19 µM (inactive)
same,GI50,[24],> 10 µM (inactive)
same,GI50,[25],9.51 µM (inactive)
same,GI50,[26],> 10 µM (inactive)
same,GI50,[27],> 10 µM (inactive)
same,GI50,[28],> 10 µM (inactive)
same,GI50,[29],9.38 µM (inactive)
same,GI50,[30],> 10 µM (inactive)
same,GI50,[31],> 10 µM (inactive)
same,GI50,[32],> 10 µM (inactive)
same,GI50,[33],> 10 µM (inactive)
same,GI50,[34],> 10 µM (inactive)
same,GI50,[35],> 10 µM (inactive)
same,GI50,[36],9.46 µM (inactive)
same,GI50,[37],> 10 µM (inactive)
same,GI50,[38],> 10 µM (inactive)
same,GI50,[39],> 10 µM (inactive)
same,GI50,[40],6.79 µM (inactive)
same,GI50,[41],> 10 µM (inactive)
same,GI50,[42],> 10 µM (inactive)
same,GI50,[43],> 10 µM (inactive)
same,GI50,[44],5.69 µM (inactive)
same,GI50,[45],2.7 µM (inactive)
same,GI50,[46],> 10 µM (inactive)
same,GI50,[47],6.22 µM
same,GI50,[48],> 10 µM (inactive)
same,GI50,[49],> 10 µM (inactive)
same,GI50,[50],> 10 µM (inactive)
same,GI50,[51],> 10 µM (inactive)
same,GI50,[52],> 10 µM (inactive)
same,GI50,[53],> 10 µM (inactive)
same,GI50,[54],> 10 µM (inactive)
same,GI50,[55],> 10 µM (inactive)
CCC1C(NC(=O)OC)C(=O)N1[C@@H](C)c1ccccc1 (stereo partly specified),GI50,[1],> 100 µM (inactive)
same,GI50,[2],> 100 µM (inactive)
same,GI50,[3],> 100 µM (inactive)
same,GI50,[56],> 100 µM (inactive)
same,GI50,[4],82.6 µM (inactive)
same,GI50,[5],> 100 µM (inactive)
same,GI50,[6],> 100 µM (inactive)
same,GI50,[7],> 100 µM (inactive)
same,GI50,[8],> 100 µM (inactive)
same,GI50,[9],> 100 µM (inactive)
same,GI50,[10],> 100 µM (inactive)
same,GI50,[11],> 100 µM (inactive)
same,GI50,[12],> 100 µM (inactive)
same,GI50,[13],> 100 µM (inactive)
same,GI50,[14],> 100 µM (inactive)
same,GI50,[16],> 100 µM (inactive)
same,GI50,[17],> 100 µM (inactive)
same,GI50,[18],> 100 µM (inactive)
same,GI50,[19],> 100 µM (inactive)
same,GI50,[57],> 100 µM (inactive)
same,GI50,[20],> 100 µM (inactive)
same,GI50,[21],> 100 µM (inactive)
same,GI50,[22],> 100 µM (inactive)
same,GI50,[23],> 100 µM (inactive)
same,GI50,[24],> 100 µM (inactive)
same,GI50,[25],> 100 µM (inactive)
same,GI50,[26],> 100 µM (inactive)
same,GI50,[27],> 100 µM (inactive)
same,GI50,[28],> 100 µM (inactive)
same,GI50,[29],> 100 µM (inactive)
same,GI50,[30],> 100 µM (inactive)
same,GI50,[31],> 100 µM (inactive)
same,GI50,[32],> 100 µM (inactive)
same,GI50,[33],> 100 µM (inactive)
same,GI50,[34],> 100 µM (inactive)
same,GI50,[35],> 100 µM (inactive)
same,GI50,[36],> 100 µM (inactive)
same,GI50,[37],> 100 µM (inactive)
same,GI50,[38],> 100 µM (inactive)
same,GI50,[39],> 100 µM (inactive)
same,GI50,[40],> 100 µM (inactive)
same,GI50,[41],> 100 µM (inactive)
same,GI50,[42],> 100 µM (inactive)
same,GI50,[43],> 100 µM (inactive)
same,GI50,[44],> 100 µM (inactive)
same,GI50,[45],> 100 µM (inactive)
same,GI50,[46],> 100 µM (inactive)
same,GI50,[47],> 100 µM
same,GI50,[48],> 100 µM (inactive)
same,GI50,[58],> 100 µM (inactive)
same,GI50,[49],> 100 µM (inactive)
same,GI50,[50],> 100 µM (inactive)
same,GI50,[52],> 100 µM (inactive)
same,GI50,[53],> 100 µM (inactive)
same,GI50,[54],> 100 µM (inactive)
same,GI50,[55],> 100 µM (inactive)
O=C1N(Cc2ccccc2)C2CSCC2N1Cc1ccccc1 (stereo unspecified),GI50,[1],24.8 µM (inactive)
same,GI50,[2],27.2 µM (inactive)
same,GI50,[56],24.1 µM (inactive)
same,GI50,[4],41.9 µM (inactive)
same,GI50,[5],30.2 µM (inactive)
same,GI50,[6],63.2 µM (inactive)
same,GI50,[7],23 µM (inactive)
same,GI50,[8],15.4 µM (inactive)
same,GI50,[9],26.5 µM (inactive)
same,GI50,[10],49.2 µM (inactive)
same,GI50,[11],27.4 µM (inactive)
same,GI50,[12],24.5 µM (inactive)
same,GI50,[13],24 µM (inactive)
same,GI50,[14],35.3 µM (inactive)
same,GI50,[15],51.2 µM (inactive)
same,GI50,[16],30.2 µM (inactive)
same,GI50,[17],31.1 µM (inactive)
same,GI50,[18],10.5 µM (inactive)
same,GI50,[19],13.5 µM (inactive)
same,GI50,[57],20.6 µM (inactive)
same,GI50,[21],33.7 µM (inactive)
same,GI50,[22],30.8 µM (inactive)
same,GI50,[23],55.5 µM (inactive)
same,GI50,[24],18.3 µM (inactive)
same,GI50,[25],17.1 µM (inactive)
same,GI50,[26],37.5 µM (inactive)
same,GI50,[27],37.7 µM (inactive)
same,GI50,[28],23.5 µM (inactive)
same,GI50,[29],27.4 µM (inactive)
same,GI50,[30],16.7 µM (inactive)
same,GI50,[31],10.4 µM (inactive)
same,GI50,[32],37.2 µM (inactive)
same,GI50,[33],23.8 µM (inactive)
same,GI50,[34],69.2 µM (inactive)
same,GI50,[35],50.9 µM (inactive)
same,GI50,[36],21.1 µM (inactive)
same,GI50,[37],12.1 µM (inactive)
same,GI50,[38],3.94 µM (inactive)
same,GI50,[39],33.3 µM (inactive)
same,GI50,[40],27.8 µM (inactive)
same,GI50,[41],20.2 µM (inactive)
same,GI50,[42],37.3 µM (inactive)
same,GI50,[43],16.8 µM (inactive)
same,GI50,[44],24.8 µM (inactive)
same,GI50,[45],29.6 µM (inactive)
same,GI50,[46],1.85 µM (inactive)
same,GI50,[48],36.4 µM (inactive)
same,GI50,[58],16.7 µM (inactive)
same,GI50,[49],29.6 µM (inactive)
same,GI50,[50],18.6 µM (inactive)
same,GI50,[51],40 µM (inactive)
same,GI50,[52],24.5 µM (inactive)
same,GI50,[53],15.9 µM (inactive)
same,GI50,[54],31.4 µM (inactive)
same,GI50,[55],36.2 µM (inactive)
